Data on 21 compounds can be found in US7786141B2 (Vertex Pharmaceuticals Incorporated, priority 2004, dated 2010).

Each structure is given as a SMILES string.

Experiment [1] concerns the target T1, M1 muscarinic receptor (Homo sapiens, UniProt P11229).
T1 construct: expressed in transfected cells; host or cells: CHO (M1-CHO)
T1 sequence (P11229 1-460): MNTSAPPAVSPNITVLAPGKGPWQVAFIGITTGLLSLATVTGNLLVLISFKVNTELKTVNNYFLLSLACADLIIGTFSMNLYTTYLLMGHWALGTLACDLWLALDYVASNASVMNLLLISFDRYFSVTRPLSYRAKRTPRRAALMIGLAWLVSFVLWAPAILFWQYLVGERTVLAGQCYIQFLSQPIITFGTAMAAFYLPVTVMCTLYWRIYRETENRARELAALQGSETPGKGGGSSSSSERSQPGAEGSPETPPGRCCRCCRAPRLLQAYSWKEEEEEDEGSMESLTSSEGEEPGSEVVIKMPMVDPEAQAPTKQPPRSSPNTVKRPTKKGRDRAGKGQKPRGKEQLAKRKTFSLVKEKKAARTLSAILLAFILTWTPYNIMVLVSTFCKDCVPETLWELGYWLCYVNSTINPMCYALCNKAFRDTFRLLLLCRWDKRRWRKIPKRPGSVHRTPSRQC
The experiment in a line: Functional mobilization of intracellular calcium (FLIPR) in M1-CHO cells. In kind it is cell-based. The following applies: M1 receptor, calcium mobilization; for Emax: read-out: M1 Efficacy. In a few lines: (§1)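 Measured via Fluo-3 fluorescence on a FLIPR, CHO cells with either muscarinic subtype received compound in 0.5% DMSO. Antagonism was assessed after 15 min pre-incubation followed by carbachol at each subtype's EC80; agonism from compound addition alone.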

Experiment [2] has as its target T2, M4 muscarinic receptor (Homo sapiens, UniProt P08173).
T2 construct: expressed in transfected cells; host or cells: CHO (M4-CHO)
T2 sequence (P08173 1-479): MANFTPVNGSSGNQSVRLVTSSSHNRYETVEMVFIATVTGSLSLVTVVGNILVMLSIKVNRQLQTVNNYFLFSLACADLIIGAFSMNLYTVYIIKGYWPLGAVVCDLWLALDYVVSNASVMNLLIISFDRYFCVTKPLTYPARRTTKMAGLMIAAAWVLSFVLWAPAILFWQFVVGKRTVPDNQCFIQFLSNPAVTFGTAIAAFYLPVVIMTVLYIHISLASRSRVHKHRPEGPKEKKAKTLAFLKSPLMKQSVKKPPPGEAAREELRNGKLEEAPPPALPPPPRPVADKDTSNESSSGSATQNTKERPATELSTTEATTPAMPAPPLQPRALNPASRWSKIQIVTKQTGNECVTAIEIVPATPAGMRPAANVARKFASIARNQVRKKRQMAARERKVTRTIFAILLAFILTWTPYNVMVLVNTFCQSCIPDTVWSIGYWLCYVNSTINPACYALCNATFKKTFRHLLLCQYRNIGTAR
The experiment in a line: Functional mobilization of intracellular calcium (FLIPR) in M4-CHO cells. Type of experiment: cell-based. The following applies: M4 receptor, calcium mobilization; for Emax: read-out: M4 Efficacy. In a few lines: as §1
For orientation: A change in cytosolic calcium serves as a functional read-out for many receptors and channels.

On to `CCOC(=O)N1CCC(N2CCC3(CC2)C(=O)Nc2ccccc23)CC1` [compound 191], for which, in experiment [1], the “M1 Activity” value is “xxx (activity was measured to be less than 0.1 μM)” and the Emax lay within 65 to 85%. In experiment [2], the “M4 Activity” value is recorded as “x (activity was measured to be greater than 1.0 μM)” and the Emax fell in the range of 65 to 85%.
As for `COC(=O)N1CC2(CCN(C3CC4CCC(C3)N4C(=O)O[C@@H]3CCOC3)CC2)c2cc(F)ccc21` (stereo partly drawn) [compound 192], in experiment [1], the “M1 Activity” value is “xxx (activity was measured to be less than 0.1 μM)” and the Emax was 65 to 85%. Moreover, in experiment [2], the “M4 Activity” value is reported as “x (activity was measured to be greater than 1.0 μM)” and the Emax was 65 to 85%.
On to `CCOC(=O)N1CCC(N2CCC3(CC2)CN(C(C)=O)c2ccc(-c4ccc(OC)cc4)cc23)CC1` [compound 193], for which, in experiment [1], the “M1 Activity” value is “x (activity was measured to be greater than 1.0 μM)” and the Emax is less than 65%. In experiment [2], the “M4 Activity” value is “x (activity was measured to be greater than 1.0 μM)” and the Emax was less than 65%.
Take `CCOC(=O)N1CCC(N2CCC3(CC2)CN(C(=O)CC(C)(C)C)c2ccc(F)cc23)CC1` [compound 194]: in experiment [1], the “M1 Activity” value was “xxx (activity was measured to be less than 0.1 μM)” and the Emax was more than 85%. Further, in experiment [2], the “M4 Activity” value was “x (activity was measured to be greater than 1.0 μM)” and the Emax is 65 to 85%.
Take `COCCOC(=O)N1CC2(CCN(C3CC4CCC(C3)N4C(=O)OC3CCC3)CC2)c2cc(F)ccc21` (stereo not drawn) [compound 195]: in experiment [1], the “M1 Activity” value is “xx (activity was measured to be between 0.1 μM and 1.0 μM)”; the Emax is less than 65%. For the same compound, in experiment [2], the “M4 Activity” value is on record as “x (activity was measured to be greater than 1.0 μM)” and the Emax is less than 65%.
Turning to `CC(=O)N[C@H]1CC2(CCN(C3CCCCC3)CC2)c2ccccc21` [compound 196], in experiment [1], the “M1 Activity” value is on record as “xxx (activity was measured to be less than 0.1 μM)” and the Emax is 65 to 85%. Also, in experiment [2], the “M4 Activity” value is reported as “x (activity was measured to be greater than 1.0 μM)” and the Emax is less than 65%.
Consider `CCOC(=O)N1C2CCC1CC(N1CCC3(CC1)CN(C(=O)Nc1ccc(F)cc1)c1ccc(F)cc13)C2` (stereo not drawn) [compound 197], for which, in experiment [1], the “M1 Activity” value was “xx (activity was measured to be between 0.1 μM and 1.0 μM)”; the Emax is less than 65%. Besides, in experiment [2], the “M4 Activity” value was “x (activity was measured to be greater than 1.0 μM)” and the Emax was less than 65%.
Turning to `O=C(O[C@@H]1CCOC1)N1CC2(CCN(C3CC4CCC(C3)N4C(=O)O[C@H]3CCOC3)CC2)c2cc(F)ccc21` (stereo partly drawn) [compound 198], in experiment [1], the “M1 Activity” value is “xx (activity was measured to be between 0.1 μM and 1.0 μM)”; the Emax is 65 to 85%. Moreover, in experiment [2], the “M4 Activity” value is recorded as “x (activity was measured to be greater than 1.0 μM)” and the Emax was less than 65%.
Consider `CCOC(=O)N1C2CCC1CC(N1CCC3(CC1)C(=O)Nc1ccccc13)C2` (stereo not drawn) [compound 199], for which, in experiment [1], the “M1 Activity” value was “xx (activity was measured to be between 0.1 μM and 1.0 μM)”; the Emax lay within 65 to 85%. In experiment [2], the “M4 Activity” value was “x (activity was measured to be greater than 1.0 μM)” and the Emax was less than 65%.
`CC=CCOC(=O)N1C2CCC1CC(N1CCC3(CC1)CN(C(=O)N(C)C)c1ccc(F)cc13)C2` (stereo not drawn) [compound 200]: in experiment [1], the “M1 Activity” value is “xx (activity was measured to be between 0.1 μM and 1.0 μM)”; the Emax was in the range of 65 to 85%. In experiment [2], the “M4 Activity” value is given as “x (activity was measured to be greater than 1.0 μM)” and the Emax was less than 65%.
As for `CC(=O)N1CC2(CCN(CC3CCN(C(=O)OC(C)C)CC3)CC2)c2cc(F)ccc21` [compound 202], in experiment [1], the “M1 Activity” value is “xx (activity was measured to be between 0.1 μM and 1.0 μM)”; the Emax is 65 to 85%. Besides, in experiment [2], the “M4 Activity” value is recorded as “x (activity was measured to be greater than 1.0 μM)” and the Emax is less than 65%.
As to `CN(C)C(=O)N1C2CCC1CC(N1CCC3(CC1)COc1ccc(F)cc13)C2` (stereo not drawn) [compound 203], in experiment [1], the “M1 Activity” value is “xxx (activity was measured to be less than 0.1 μM)” and the Emax lay within 65 to 85%. In experiment [2], the “M4 Activity” value is “xx (activity was measured to be between 0.1 μM and 1.0 μM)”; the Emax was less than 65%.
As for `Fc1ccc2c(c1)C1(CCN([C@H]3C[C@@H]4CC[C@@H]3C4)CC1)CO2` [compound 204], in experiment [1], the “M1 Activity” value was “xxx (activity was measured to be less than 0.1 μM)” and the Emax was 65 to 85%. Further, in experiment [2], the “M4 Activity” value was “x (activity was measured to be greater than 1.0 μM)” and the Emax is less than 65%.
The matching figures for `CCOC(=O)N1C2CCC1CC(N1CCC3(CC1)CN(C(C)=O)c1ccccc13)C2` (stereo not drawn) [compound 205]: “x (activity was measured to be greater than 1.0 μM)”, less than 65%, “x (activity was measured to be greater than 1.0 μM)” and less than 65%.
The matching figures for `CC(=O)N[C@H]1CC2(CCN(C3CCOCC3)CC2)c2ccccc21` [compound 206]: “xxx (activity was measured to be less than 0.1 μM)”, 65 to 85%, “x (activity was measured to be greater than 1.0 μM)” and less than 65%.
As to `Fc1ccc2c(c1)C1(CCN(C[C@H]3C[C@H]4CC[C@H]3C4)CC1)CO2` [compound 207], in experiment [1], the “M1 Activity” value is “xx (activity was measured to be between 0.1 μM and 1.0 μM)”; the Emax fell in the range of 65 to 85%. For the same compound, in experiment [2], the “M4 Activity” value is reported as “x (activity was measured to be greater than 1.0 μM)” and the Emax was less than 65%.
In the case of `Cc1ccc2c(c1)C1(CCN(C3CC4CCC3C4)CC1)CN2C(=O)c1cc(C)on1` (stereo not drawn) [compound 208], in experiment [1], the “M1 Activity” value is “xx (activity was measured to be between 0.1 μM and 1.0 μM)”; the Emax is less than 65%. Moreover, in experiment [2], the “M4 Activity” value is listed as “x (activity was measured to be greater than 1.0 μM)” and the Emax is less than 65%.
`CN(C)C(=O)N1CC2(CCN(C3CCN(C(=O)O[C@@H]4CCOC4)CC3)CC2)c2cc(F)ccc21` [compound 209]: in experiment [1], the “M1 Activity” value was “xx (activity was measured to be between 0.1 μM and 1.0 μM)”; the Emax was more than 85%. Also, in experiment [2], the “M4 Activity” value is given as “x (activity was measured to be greater than 1.0 μM)” and the Emax is less than 65%.
For `CC(=O)N1CC2(CCN(C3CCCCCC3)CC2)c2cc(F)ccc21` [compound 210], in experiment [1], the “M1 Activity” value is “xx (activity was measured to be between 0.1 μM and 1.0 μM)”; the Emax was in the range of 65 to 85%. In experiment [2], the “M4 Activity” value is “x (activity was measured to be greater than 1.0 μM)” and the Emax was less than 65%.
As to `Cc1ccc2c(c1)C1(CCN(C3CC4CCC3C4)CC1)CN2C(=O)c1cc(C)n(C)n1` (stereo not drawn) [compound 211], in experiment [1], the “M1 Activity” value is listed as “x (activity was measured to be greater than 1.0 μM)” and the Emax was in the range of 65 to 85%. In addition, in experiment [2], the “M4 Activity” value was “x (activity was measured to be greater than 1.0 μM)” and the Emax was less than 65%.
On to `O=C(O[C@H]1CCOC1)N1C2CCC1CC(N1CCC3(CC1)COc1ccc(F)cc13)C2` (stereo partly drawn) [compound 212], for which, in experiment [1], the “M1 Activity” value was “x (activity was measured to be greater than 1.0 μM)” and the Emax was less than 65%. Moreover, in experiment [2], the “M4 Activity” value is “x (activity was measured to be greater than 1.0 μM)” and the Emax was less than 65%.
